Results from US12258327B2, “5-membered heteroaryl-containing aminopyridine compounds as EGFR inhibitors” (YUHAN CORPORATION, priority 2021, dated 2025).
Like-named read-outs stand apart in the source and are kept apart here.

Experiments:
EGFR wildtype (WT) = EGFR wildtype (WT) (Homo sapiens, UniProt P00533); experiment: Biochemical EGFR kinase assay (Lance Ultra TR-FRET), wildtype
Method in brief: (§1)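 Kinase activity is measured by TR-FRET phosphopeptide detection. Compounds span 0.003 μM to 10 μM; the 1 h reaction at room temperature is quenched with EDTA, then labelled antibody (2 nM) is incubated 60 min before reading.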

EGFR L858R/T790M/C797S = EGFR L858R/T790M/C797S (Homo sapiens, UniProt P00533, C797S/L858R/T790M); experiment: Biochemical EGFR kinase assay (Lance Ultra TR-FRET), triple mutant L858R/T790M/C797S
Method in brief: as §1

EGFR del19/C797S = EGFR del19/C797S (Homo sapiens, UniProt P00533, C797S/DEL746-750); experiment: Biochemical EGFR kinase assay (Lance Ultra TR-FRET), double mutant del19/C797S
Method in brief: as §1

EGFR del19/T790M/C797S = EGFR del19/T790M/C797S (Homo sapiens, UniProt P00533, C797S/DEL746-750/T790M); experiment: Biochemical EGFR kinase assay (Lance Ultra TR-FRET), triple mutant del19/T790M/C797S
Method in brief: as §1

EGFR L858R/C797S = EGFR L858R/C797S (Homo sapiens, UniProt P00533, C797S/L858R); experiment: Biochemical EGFR kinase assay (Lance Ultra TR-FRET), double mutant L858R/C797S
Method in brief: as §1

[1] = Km ATP, read-out: IC50 WT (nM) Km ATP
[2] = Km ATP, read-out: IC50 L858R/T790M/C797S (nM) Km ATP
[3] = Km ATP, read-out: IC50 del19/C797S (nM) Km ATP
[4] = Km ATP, read-out: IC50 del19/T790M/C797S (nM) Km ATP
[5] = Km ATP, read-out: IC50 L858R/C797S (nM) Km ATP
[6] = IC50 WT (nM) 100 μM ATP, 100 μM ATP
[7] = IC50 L858R/T790M/C797S (nM) 100 μM ATP, 100 μM ATP
[8] = IC50 del19/C797S (nM) 100 μM ATP, 100 μM ATP
[9] = IC50 del19/T790M/C797S (nM) 100 μM ATP, 100 μM ATP
[10] = IC50 L858R/C797S (nM) 100 μM ATP, 100 μM ATP

EGFR L858R/C797S, sequence (P00533 25-1210 C797S/L858R): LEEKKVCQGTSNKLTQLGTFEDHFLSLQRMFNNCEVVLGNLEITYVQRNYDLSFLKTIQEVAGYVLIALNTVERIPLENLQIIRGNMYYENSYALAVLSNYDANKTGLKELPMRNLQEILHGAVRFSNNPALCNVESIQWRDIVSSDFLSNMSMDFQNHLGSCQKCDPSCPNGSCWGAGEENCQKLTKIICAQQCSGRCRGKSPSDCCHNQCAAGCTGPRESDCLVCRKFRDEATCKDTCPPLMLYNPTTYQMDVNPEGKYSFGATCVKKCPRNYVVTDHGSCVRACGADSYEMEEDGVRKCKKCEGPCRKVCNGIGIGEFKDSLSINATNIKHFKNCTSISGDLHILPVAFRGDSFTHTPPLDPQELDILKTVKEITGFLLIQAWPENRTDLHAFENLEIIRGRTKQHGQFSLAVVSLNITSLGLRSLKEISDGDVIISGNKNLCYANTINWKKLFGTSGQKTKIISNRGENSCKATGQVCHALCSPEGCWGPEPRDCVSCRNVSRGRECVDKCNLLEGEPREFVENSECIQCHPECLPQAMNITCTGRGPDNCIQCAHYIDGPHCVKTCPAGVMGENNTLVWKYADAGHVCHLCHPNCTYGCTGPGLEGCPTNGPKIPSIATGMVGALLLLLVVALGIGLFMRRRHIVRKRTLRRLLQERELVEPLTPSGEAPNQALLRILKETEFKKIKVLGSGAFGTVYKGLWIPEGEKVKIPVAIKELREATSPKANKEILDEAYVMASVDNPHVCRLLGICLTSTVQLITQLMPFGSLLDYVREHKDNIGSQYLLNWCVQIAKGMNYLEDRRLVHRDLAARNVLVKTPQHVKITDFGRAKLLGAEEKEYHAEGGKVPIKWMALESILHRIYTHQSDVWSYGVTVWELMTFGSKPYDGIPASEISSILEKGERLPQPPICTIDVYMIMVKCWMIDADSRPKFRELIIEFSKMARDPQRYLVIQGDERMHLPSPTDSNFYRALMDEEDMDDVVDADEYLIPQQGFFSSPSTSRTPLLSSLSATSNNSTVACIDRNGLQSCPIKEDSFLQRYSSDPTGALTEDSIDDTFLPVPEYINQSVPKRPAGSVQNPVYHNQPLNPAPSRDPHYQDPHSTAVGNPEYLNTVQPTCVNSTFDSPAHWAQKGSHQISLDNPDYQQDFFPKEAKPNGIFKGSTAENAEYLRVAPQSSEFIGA
EGFR del19/C797S, sequence (P00533 with tags, fused parts or gaps DEL746-750/C797S): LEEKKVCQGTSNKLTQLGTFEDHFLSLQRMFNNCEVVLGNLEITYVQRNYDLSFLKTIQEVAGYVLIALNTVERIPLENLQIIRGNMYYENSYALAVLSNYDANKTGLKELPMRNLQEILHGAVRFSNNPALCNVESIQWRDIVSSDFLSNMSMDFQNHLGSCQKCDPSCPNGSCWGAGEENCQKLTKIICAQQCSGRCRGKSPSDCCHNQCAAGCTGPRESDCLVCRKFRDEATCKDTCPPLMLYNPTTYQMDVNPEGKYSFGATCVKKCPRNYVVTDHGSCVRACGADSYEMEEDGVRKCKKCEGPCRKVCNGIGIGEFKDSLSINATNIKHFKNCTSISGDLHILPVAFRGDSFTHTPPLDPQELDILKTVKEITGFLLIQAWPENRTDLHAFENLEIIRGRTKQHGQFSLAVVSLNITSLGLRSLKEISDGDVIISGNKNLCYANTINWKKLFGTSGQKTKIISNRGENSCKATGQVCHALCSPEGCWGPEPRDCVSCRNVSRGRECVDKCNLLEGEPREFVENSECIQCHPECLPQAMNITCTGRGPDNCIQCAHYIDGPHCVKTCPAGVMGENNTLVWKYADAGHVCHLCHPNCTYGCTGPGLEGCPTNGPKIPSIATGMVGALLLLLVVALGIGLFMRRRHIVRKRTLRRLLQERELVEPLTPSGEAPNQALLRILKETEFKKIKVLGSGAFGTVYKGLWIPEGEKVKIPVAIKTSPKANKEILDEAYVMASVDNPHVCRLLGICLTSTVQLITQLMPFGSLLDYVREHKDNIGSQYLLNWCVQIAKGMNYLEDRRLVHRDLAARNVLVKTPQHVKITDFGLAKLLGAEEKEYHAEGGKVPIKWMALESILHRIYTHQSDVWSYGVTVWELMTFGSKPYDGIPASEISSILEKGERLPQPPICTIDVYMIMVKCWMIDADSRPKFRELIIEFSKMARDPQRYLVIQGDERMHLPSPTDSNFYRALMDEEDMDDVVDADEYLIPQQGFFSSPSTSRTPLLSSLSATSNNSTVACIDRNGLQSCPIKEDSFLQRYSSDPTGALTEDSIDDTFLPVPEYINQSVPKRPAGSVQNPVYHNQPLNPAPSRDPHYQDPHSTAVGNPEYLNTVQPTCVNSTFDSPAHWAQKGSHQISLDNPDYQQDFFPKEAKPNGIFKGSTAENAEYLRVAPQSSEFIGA
EGFR wildtype (WT), sequence (P00533 25-1210): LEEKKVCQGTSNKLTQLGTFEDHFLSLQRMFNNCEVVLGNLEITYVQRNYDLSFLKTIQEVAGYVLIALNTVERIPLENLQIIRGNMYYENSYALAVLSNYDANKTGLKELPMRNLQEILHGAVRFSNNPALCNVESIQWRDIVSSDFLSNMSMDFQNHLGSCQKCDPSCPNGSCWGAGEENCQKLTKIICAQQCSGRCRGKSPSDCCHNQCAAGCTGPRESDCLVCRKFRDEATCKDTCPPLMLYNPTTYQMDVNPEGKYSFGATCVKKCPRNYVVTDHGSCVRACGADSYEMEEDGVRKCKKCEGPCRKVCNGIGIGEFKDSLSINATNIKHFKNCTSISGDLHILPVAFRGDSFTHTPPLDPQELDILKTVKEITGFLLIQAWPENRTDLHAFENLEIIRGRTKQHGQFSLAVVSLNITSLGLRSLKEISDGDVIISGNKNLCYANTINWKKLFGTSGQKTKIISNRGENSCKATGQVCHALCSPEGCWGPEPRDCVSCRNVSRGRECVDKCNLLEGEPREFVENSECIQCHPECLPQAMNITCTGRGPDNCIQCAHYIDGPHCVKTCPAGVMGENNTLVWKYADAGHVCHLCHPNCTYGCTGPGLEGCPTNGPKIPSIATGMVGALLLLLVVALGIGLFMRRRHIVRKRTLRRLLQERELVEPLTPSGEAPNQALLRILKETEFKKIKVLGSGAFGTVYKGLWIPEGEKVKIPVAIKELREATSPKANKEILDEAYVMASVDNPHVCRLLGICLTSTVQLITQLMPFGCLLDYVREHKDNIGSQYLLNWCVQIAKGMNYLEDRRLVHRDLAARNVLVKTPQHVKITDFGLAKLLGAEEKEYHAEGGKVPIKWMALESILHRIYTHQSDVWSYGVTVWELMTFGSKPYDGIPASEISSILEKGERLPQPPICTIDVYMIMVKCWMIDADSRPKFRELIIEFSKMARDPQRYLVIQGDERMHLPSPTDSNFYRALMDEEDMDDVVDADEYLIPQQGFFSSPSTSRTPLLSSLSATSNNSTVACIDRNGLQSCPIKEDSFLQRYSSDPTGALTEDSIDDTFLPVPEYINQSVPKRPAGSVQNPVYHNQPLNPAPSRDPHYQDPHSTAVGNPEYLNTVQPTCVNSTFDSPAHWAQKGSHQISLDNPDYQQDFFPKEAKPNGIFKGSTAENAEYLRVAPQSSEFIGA
EGFR L858R/T790M/C797S, sequence (P00533 25-1210 T790M/C797S/L858R): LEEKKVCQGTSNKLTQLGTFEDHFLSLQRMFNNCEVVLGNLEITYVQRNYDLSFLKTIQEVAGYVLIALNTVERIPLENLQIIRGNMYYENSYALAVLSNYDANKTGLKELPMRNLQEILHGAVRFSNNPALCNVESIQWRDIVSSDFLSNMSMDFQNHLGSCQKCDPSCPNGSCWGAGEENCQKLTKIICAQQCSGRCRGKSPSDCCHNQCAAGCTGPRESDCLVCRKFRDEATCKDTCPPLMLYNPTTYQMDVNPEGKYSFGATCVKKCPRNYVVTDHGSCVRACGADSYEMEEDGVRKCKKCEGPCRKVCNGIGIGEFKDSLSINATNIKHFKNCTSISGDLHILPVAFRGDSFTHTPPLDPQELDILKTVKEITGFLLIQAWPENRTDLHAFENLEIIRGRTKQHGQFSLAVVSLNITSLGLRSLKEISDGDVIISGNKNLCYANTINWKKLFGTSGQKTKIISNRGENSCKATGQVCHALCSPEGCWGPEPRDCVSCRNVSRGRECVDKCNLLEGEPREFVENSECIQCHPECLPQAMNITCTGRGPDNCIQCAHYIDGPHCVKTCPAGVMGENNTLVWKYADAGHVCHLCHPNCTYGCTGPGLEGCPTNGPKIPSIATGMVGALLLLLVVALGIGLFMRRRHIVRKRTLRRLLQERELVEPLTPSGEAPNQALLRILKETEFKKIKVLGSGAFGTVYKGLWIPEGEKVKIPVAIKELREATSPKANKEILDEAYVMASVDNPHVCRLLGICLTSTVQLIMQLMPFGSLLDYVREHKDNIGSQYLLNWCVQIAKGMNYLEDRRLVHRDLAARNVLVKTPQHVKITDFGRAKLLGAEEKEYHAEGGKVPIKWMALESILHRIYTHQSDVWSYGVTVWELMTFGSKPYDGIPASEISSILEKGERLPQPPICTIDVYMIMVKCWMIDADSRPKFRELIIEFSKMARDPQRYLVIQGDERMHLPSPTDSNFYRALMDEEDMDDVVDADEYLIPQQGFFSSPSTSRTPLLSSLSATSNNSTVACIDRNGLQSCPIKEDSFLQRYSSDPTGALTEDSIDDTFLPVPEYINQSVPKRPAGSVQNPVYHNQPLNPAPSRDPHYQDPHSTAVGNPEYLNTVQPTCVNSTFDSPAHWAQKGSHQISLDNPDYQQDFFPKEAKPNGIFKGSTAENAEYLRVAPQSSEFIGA

IC50 (EGFR wildtype (WT); [1]) [nM]	IC50 (EGFR L858R/T790M/C797S; [2]) [nM]	IC50 (EGFR del19/C797S; [3]) [nM]	IC50 (EGFR del19/T790M/C797S; [4]) [nM]	IC50 (EGFR L858R/C797S; [5]) [nM]	IC50 (EGFR wildtype (WT); [6]) [nM]	IC50 (EGFR L858R/T790M/C797S; [7]) [nM]	IC50 (EGFR del19/C797S; [8]) [nM]	IC50 (EGFR del19/T790M/C797S; [9]) [nM]	IC50 (EGFR L858R/C797S; [10]) [nM]	Structure (SMILES)	IC50 (EGFR wildtype (WT); read-out: IC50 WT (nM) 100 μM ATP, 100 μM ATP) [nM]	IC50 (EGFR L858R/T790M/C797S; read-out: IC50 L858R/T790M/C797S (nM) 100 μM ATP, 100 μM ATP) [nM]	IC50 (EGFR del19/C797S; read-out: IC50 del19/C797S (nM) 100 μM ATP, 100 μM ATP) [nM]	IC50 (EGFR del19/T790M/C797S; read-out: IC50 del19/T790M/C797S (nM) 100 μM ATP, 100 μM ATP) [nM]	IC50 (EGFR L858R/C797S; read-out: IC50 L858R/C797S (nM) 100 μM ATP, 100 μM ATP) [nM]
77.2	0.7	27.6	0.6	5						C=CCn1cc(-c2nccc(Nc3cc(N[C@H]4CC[C@@](C)(O)CC4)c(-c4ccn(C(F)F)n4)cn3)n2)cn1 [Example 116, (1s,4s)-4-((2-((2-(1-Allyl-1H-pyrazol-4-yl)pyrimidin-4-yl)amino)-5-(1-(difluoromethyl)-1H-pyrazol-3-yl)pyridin-4-yl)amino)-1-methylcyclohexan-1-ol]					
1.6	0.5	0.8	0.5	0.2						C=CCCS(=O)(=O)n1cc(-c2nccc(Nc3cc(N[C@H]4CC[C@@](C)(O)CC4)c(-c4ccn(C(F)F)n4)cn3)n2)cn1 [Example 117, (1s,4s)-4-((2-((2-(1-(But-3-en-1-ylsulfonyl)-1H-pyrazol-4-yl)pyrimidin-4-yl)amino)-5-(1-(difluoromethyl)-1H-pyrazol-3-yl)pyridin-4-yl)amino)-1-methylcyclohexan-1-ol]					
4.9	0.1	0.3	0.2	0.2	1320	0.3	0.2	0.2	3.6	Cn1ccc(-c2cnc(Nc3ccnc(-c4cnn(S(=O)(=O)C5CC5)c4)n3)cc2NC[C@H]2CC[C@@H](O)C2)n1 [Example 118, (1R,3S)-3-(((2-((2-(1-(Cyclopropylsulfonyl)-1H-pyrazol-4-yl)pyrimidin-4-yl)amino)-5-(1-methyl-1H-pyrazol-3-yl)pyridin-4-yl)amino)methyl)cyclopentan-1-ol]					
6.1	0.1	0.5	0.4	0.4	> 10000	0.6	0.5	0.4	15.1	O=S(=O)(C1CC1)n1cc(-c2nccc(Nc3cc(NC[C@H]4CC[C@@H](O)C4)c(-c4ccn(C(F)F)n4)cn3)n2)cn1 [Example 119, (1R,3S)-3-(((2-((2-(1-(Cyclopropylsulfonyl)-1H-pyrazol-4-yl)pyrimidin-4-yl)amino)-5-(1-(difluoromethyl)-1H-pyrazol-3-yl)pyridin-4-yl)amino)methyl)cyclopentan-1-ol]					
29.7	0.3	1.4	0.6	3	> 10000	0.9	2.3	0.9	41.7	C[C@]1(O)CC[C@@H](Nc2cc(Nc3ccnc(-c4cnn(S(=O)(=O)C5CC5)c4)n3)ncc2-c2csc(N3CCOCC3)n2)CC1 [Example 120, (1s,4s)-4-((2-((2-(1-(Cyclopropylsulfonyl)-1H-pyrazol-4-yl)pyrimidin-4-yl)amino)-5-(2-morpholinothiazol-4-yl)pyridin-4-yl)amino)-1-methylcyclohexan-1-ol]					
21.6	0.1	1.4	0.3	1.9	> 10000	0.2	1.3	0.2	22.5	O=S(=O)(C1CC1)n1cc(-c2nccc(Nc3cc(N[C@H]4CC[C@@H](NCCF)CC4)c(-c4nc(C(F)F)cs4)cn3)n2)cn1 [Example 123, N^2-(2-(1-(Cyclopropylsulfonyl)-1H-pyrazol-4-yl)pyrimidin-4-yl)-5-(4-(difluoromethyl)thiazol-2-yl)-N^4-((1s,4s)-4-((2-fluoroethyl)amino)cyclohexyl)pyridine-2,4-diamine]					
1.1	0.1	0.4	0.1	0.5	801	0.1	0.6	0.2	9.6	Cn1ccc(-c2cnc(Nc3ccnc(-c4cnn(S(=O)(=O)C5CC5)c4)n3)cc2N[C@H]2CC[C@@H](N(C)C)CC2)n1 [Example 124, N^2-(2-(1-(Cyclopropylsulfonyl)-1H-pyrazol-4-yl)pyrimidin-4-yl)-N^4-((1s,4s)-4-(dimethylamino)cyclohexyl)-5-(1-methyl-1H-pyrazol-3-yl)pyridine-2,4-diamine]					
144	0.4	20.4	0.7	10.8	> 10000		18.5		218	O=S(=O)(C1CC1)n1cc(-c2nccc(Nc3cc(N[C@H]4CC[C@](O)(CO)CC4)c(-c4csc(N5CCOCC5)n4)cn3)n2)cn1 [Example 125, (1s,4s)-4-((2-((2-(1-(Cyclopropylsulfonyl)-1H-pyrazol-4-yl)pyrimidin-4-yl)amino)-5-(2-morpholinothiazol-4-yl)pyridin-4-yl)amino)-1-(hydroxymethyl)cyclohexan-1-ol]					
112	0.4	21	0.7		> 10000	1.3	30.3	0.8	379	O=S(=O)(C1CC1)n1cc(-c2nccc(Nc3cc(N[C@H]4CC[C@@H](NCCF)CC4)c(-c4csc(N5CCOCC5)n4)cn3)n2)cn1 [Example 126, N^2-(2-(1-(Cyclopropylsulfonyl)-1H-pyrazol-4-yl)pyrimidin-4-yl)-N^4-((1s,4s)-4-((2-fluoroethyl)amino)cyclohexyl)-5-(2-morpholinothiazol-4-yl)pyridine-2,4-diamine]					
53	0.7	16.9	0.7	19.6	> 10000	1.8	25.8	1	355	Cn1ccc(-c2cnc(Nc3ccnc(-c4cnn(S(=O)(=O)C5CC5)c4)n3)cc2NCC2(C)CCC(O)CC2)n1 (stereo not shown) [Example 127, 4-(((2-((2-(1-(Cyclopropylsulfonyl)-1H-pyrazol-4-yl)pyrimidin-4-yl)amino)-5-(1-methyl-1H-pyrazol-3-yl)pyridin-4-yl)amino)methyl)-4-methylcyclohexan-1-ol]					
					> 10000	6.4	40.8	3.1	1120	CC1(CNc2cc(Nc3ccnc(-c4cnn(S(=O)(=O)C5CC5)c4)n3)ncc2-c2ccn(C(F)F)n2)CCC(O)CC1 (stereo not shown) [Example 128, 4-(((2-((2-(1-(Cyclopropylsulfonyl)-1H-pyrazol-4-yl)pyrimidin-4-yl)amino)-5-(1-(difluoromethyl)-1H-pyrazol-3-yl)pyridin-4-yl)amino)methyl)-4-methylcyclohexan-1-ol]					
					> 10000	0.7	2	0.7	14.3	Cn1ccc(-c2cnc(Nc3ccnc(-c4cnn(S(=O)(=O)C5CC5)c4)n3)cc2NC[C@H]2CC[C@H](NCC(F)F)CC2)n1 [Example 129, N^2-(2-(1-(Cyclopropylsulfonyl)-1H-pyrazol-4-yl)pyrimidin-4-yl)-N^4-(((1r,4r)-4-((2,2-difluoroethyl)amino)cyclohexyl)methyl)-5-(1-methyl-1H-pyrazol-3-yl)pyridine-2,4-diamine]					
										O=S(=O)(C1CC1)n1cc(-c2nccc(Nc3cc(NC[C@H]4CC[C@H](NCC(F)F)CC4)c(-c4ccn(C(F)F)n4)cn3)n2)cn1 [Example 130, N^2-(2-(1-(Cyclopropylsulfonyl)-1H-pyrazol-4-yl)pyrimidin-4-yl)-N^4-(((1r,4r)-4-((2,2-difluoroethyl)amino)cyclohexyl)methyl)-5-(1-(difluoromethyl)-1H-pyrazol-3-yl)pyridine-2,4-diamine]	> 10000	2	6.3	2.1	96.5
2.8	0.1	0.2	0.2	0.4	1540	0.3	0.5	0.3	1.1	Cn1ccc(-c2cnc(Nc3ccnc(-c4cnn(S(=O)(=O)C5CC5)c4)n3)cc2NCC2CCC(NCCF)CC2)n1 (stereo not shown) [Example 131, N^2-(2-(1-(Cyclopropylsulfonyl)-1H-pyrazol-4-yl)pyrimidin-4-yl)-N^4-((4-((2-fluoroethyl)amino)cyclohexyl)methyl)-5-(1-methyl-1H-pyrazol-3-yl)pyridine-2,4-diamine]					
